According to PubChem BioAssay (NCI):
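Where inhibition never reached the appropriate level, the endpoint shown equals the highest concentration tested. Otherwise, values were interpolated linearly from a five-concentration, 48-hour dose response in 96-well plates. TGI: total growth inhibition.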

Tests used:
Assay in all cases: NCI anticancer screen, dose series, 48 h
[1] = tested on: SK-MEL-5 melanoma
[2] = tested on: UO-31 renal
[3] = tested on: SNB-19 CNS
[4] = tested on: NCI-H226 lung
[5] = tested on: HCT-15 colon
[6] = tested on: SNB-75 CNS
[7] = tested on: UACC-62 melanoma
[8] = tested on: SN12C renal
[9] = tested on: HT29 colon
[10] = tested on: NCI-H23 lung
[11] = tested on: HOP-62 NSCLC
[12] = tested on: MDA-N
[13] = tested on: SK-MEL-2 melanoma
[14] = tested on: MDA-MB-435
[15] = tested on: COLO 205 colon
[16] = tested on: ACHN renal
[17] = tested on: PC-3 prostate
[18] = tested on: K-562 leukemia
[19] = tested on: HOP-92 NSCLC
[20] = tested on: OVCAR-4 ovarian
[21] = tested on: EKVX NSCLC
[22] = tested on: T-47D breast
[23] = tested on: MCF7 breast
[24] = tested on: LOX IMVI melanoma
[25] = tested on: BT-549 breast
[26] = tested on: 786-0 renal
[27] = tested on: A549 NSCLC
[28] = tested on: HL-60(TB) leukemia
[29] = tested on: UACC-257 melanoma
[30] = tested on: MALME-3M melanoma
[31] = tested on: HCT-116 colon
[32] = tested on: RPMI-8226 leukemia
[33] = tested on: SK-OV-3 ovarian
[34] = tested on: M14 melanoma
[35] = tested on: NCI/ADR-RES ovarian
[36] = tested on: SW-620 colon
[37] = tested on: U251 CNS
[38] = tested on: SF-295 CNS
[39] = tested on: OVCAR-8 ovarian
[40] = tested on: SR leukemia
[41] = tested on: CAKI-1 renal
[42] = tested on: KM12 colon
[43] = tested on: IGROV1 ovarian
[44] = tested on: HS 578T breast
[45] = tested on: OVCAR-5 ovarian
[46] = tested on: SF-268 CNS
[47] = tested on: OVCAR-3 ovarian
[48] = tested on: DU-145 prostate
[49] = tested on: NCI-H460 lung
[50] = tested on: MOLT-4 leukemia
[51] = tested on: TK-10 renal
[52] = tested on: SK-MEL-28 melanoma
[53] = tested on: CCRF-CEM leukemia
[54] = tested on: NCI-H522 lung
[55] = tested on: RXF 393 renal
[56] = tested on: A498 renal
[57] = tested on: SF-539 CNS
[58] = tested on: MDA-MB-231 breast

Measured: TGI

CC(=O)CSc1c(-c2ccccc2)c(=O)n(-c2ccccc2)c(=S)n1-c1ccccc1
not listed: [55] | [56] | [57] | [58]
> 100 µM: all other assays above

CC(NC(=O)C(N)CC(=O)O)NC(=O)C1CCC1 (configuration not stated)
not listed: [19] | [28] | [38] | [40] | [43]
> 100 µM: all other assays above
